Reference: patent US5536848A, “Bioactive acetogenins and derivatives” (Purdue Research Foundation, priority 1994, dated 1996)
Values after ≈ are worked out from the molar mass of the structure shown. “Also recorded” adds a separate entry of the source. Read-outs that look alike come from different tables or passages of the source.

Legend:
[1] = system: brine shrimp (Artemia salina Leach); assay: Brine shrimp lethality test (BST); type: in vivo; conditions: for LC50: Artemia salina, read-out: BST LC50
Procedure: (§1) The brine shrimp (Artemia salina Leach) test (BST) was performed as modified to determine LC50 values in μg/ml. Seven-day in vitro cytotoxicity tests against human tumor cell lines were carried out at the Purdue Cancer Center, using standard protocols for A-549 (human lung carcinoma), MCF-7 (human breast carcinoma) and HT-29 (human colon carcinoma) with adriamycin as a positive control. The reported ED50 values in μg/ml (Table 5) were tabulated from the same run in order to facilitate comparison for the SAR's.
(§2) Bioassays. The brine shrimp (Artemia salina Leach) test (BST) was performed as modified. Zhao et al., Phytochemistry, 33, p. 1065 (1993). Seven-day in vitro cytotoxicity tests against human tumor cell lines were carried out at the Purdue Cancer Center, using standard protocols for A-549 (human lung carcinoma), Gu, Z. M.; Fang, X.-P.; Miesbauer, L. R., Smith, D. L.; and McLaughlin, J. L., 30, 31, and 32-Hydroxybullatacinones: Bioactive Terminally-Hydroxylated Annonaceous Acetogenins from Annona bullata., J. Nat. Prod., 1993, 56, 870-876; MCF-7 (human breast carcinoma) McLaughlin, J. L., Chang, C.-J., and Smith, D. L., Simple Bench-Top Bioassays (Brine Shrimp and Potato Discs) for the Discoveries of Plant Antitumor Compounds: A Review of Recent Progress. In Kinghorn, A. D., Balandrin, J. (Eds): "Human Medicinal Agents from Plants", ACS Symposium Series, Washington, D.C., American Chemical Society, 1993, pp. 112-137; and HT-29 (human colon carcinoma), Mclaughlin, J.L., Chang, C.-J., Smith, D.L., "'Bench-Top' Bioassays for the Discovery of Bioactive Natural Products: An Update", in Rahman, Atta-ur- (Ed): "Studies in Natural Product Chemistry", Vol. 9, Amsterdam, Elsevier, 1991, pp. 383-409, with adriamycin as a positive control. The reported values (Table IV) were tabulated from the same run in order to facilitate comparison for the SAR's.
(§3) Bioassay. The extracts, fractions, and isolates were routinely evaluated for lethality to brine shrimp larvae (BST). Cytotoxicities against human solid tumor cells were measured at the Purdue Cell Culture Laboratory, Purdue Cancer Center, for the A-549 lung carcinoma, MCF-7 breast carcinoma, and HT-29 colon adenocarcinoma.
(§4) The brine shrimp lethality test (BST), on newly hatched naupleii, was performed in our laboratory as previously described. McLaughlin, Methods in Plant Biochemistry, Vol. 6, Hostettmann, Academic Press, London, pp. 1-33 (1991). Seven day cytotoxicities against human solid tumor cells were measured at the Cell Culture Laboratory, Purdue Cancer Center, for the A-549 lung carcinoma, MCF-7 breast carcinoma, and HT-29 colon adenocarcinoma. The respiratory functions of rat liver mitochondria (RMB) were measured polarographically by determination of their rates of oxygen consumption after the addition of acetogenins or their derivatives.

rat liver mitochondria = assay: Rat mitochondrial bioassay (RMB), inhibition of oxygen uptake; type: biochemical; conditions: for RMB IC50: Table 17, oxygen consumption of rat liver mitochondria, parent and acetal derivative in the same run
Procedure: as §4
The oxidative phosphorylation pathway (or electron transport chain) is responsible for oxidizing NADH to NAD^+ and producing ATP from ADP and phosphate within the mitochondria. There are five enzyme complexes in this pathway: NADH-ubiquinone reductase (complex I), succinate-ubiquinone reductase (complex II), ubiquinone-cytochrome c reductase (complex III), cytochrome c oxidase (complex IV) and the F0 F1 -ATPase complex (complex V). The end point of the oxidative phosphorylation pathway is the reduction of oxygen (O2) to water in the mitochondria (thus, it is also called respiration), coupled with the synthesis of ATP by complex V. State 4 respiration is the oxidation of substrates in the absence of a phosphate acceptor (e.g., ADP). State 3 respiration occurs when a phosphate acceptor is present and oxygen utilization increases. The ratio of State 3 respiration to State 4 respiration is the respiratory control ratio (RCR).
The process of respiration can be measured by using an oxygen electrode to detect the amount of oxygen present in the assay cell. If respiration is occurring normally, the concentration of oxygen should slowly decrease as it is reduced to water. However, if there is some type of inhibition of oxidative phosphorylation occurring, the oxygen level will no longer decrease at the same rate. This rate of oxygen usage can be visualized by a chart recorder connected to the oxygen electrode. At normal respiration,a decreasing baseline slope will be established. During inhibition, however, the baseline slope should decrease (i.e., the slope will move closer to zero), since the oxygen present is no longer being reduced. In other words, the oxygen concentration in the assay cell is no longer decreasing at the same rate as in normal respiration. Furthermore, inhibition sites at specific complexes can be determined by competitive inhibition studies. This is accomplished by addition of a known inhibitor of, e.g., complex I, followed by the new respiration-inhibiting compound. […] This can be verified by trying inhibitors at other sites and by reversing the order, i.e., adding the new compound and then the known inhibitor.
The method for isolating rat liver mitochondria essentially followed the published methodology. Ahammadsahib et al., Life Sciences, 53, pgs. 1113-1120 (1993). The isolation buffer used for the isolation of mitochondria from rat liver consisted of 4 mM Tris-HC1, 0.5 mM EDTA, and 250 mM sucrose at a pH of 7.4. The isolation buffer was kept at refrigeration temperature at all times by storing on ice during the whole procedure. The rats were supplied by Sprague-Dawley, were male, and weighed approximately 300-320 grams. They were sacrificed with carbon dioxide, and the livers were removed and immediately placed in the isolation buffer on ice. The livers were then rinsed with several washings of cold buffer, cut into pieces, and homogenized. The homogenates were then centrifuged (Sorvall Superspeed RC2-B, 4° C) for 10 minutes at approximately 2000 rpms; the supernatant was next centrifuged for 20 minutes at approximately 9000 rpms. The pellet was reserved and resuspended in 2 ml of assay buffer with a glass pipet. The assay buffer consisted of 100 mM KC1, 5 mM KH2 PO4, 1 mM EDTA, 5 mM glutamate, 1 mM malate, and 20 mM Tris-HCl at a pH of 7.4 and was stored at room temperature. […]

[2] = system: A-549 (human lung carcinoma); assay: Seven-day in vitro cytotoxicity, A-549; type: cell-based; conditions: A549, 168 h
Procedure: as §1, §2, §3, §4

[3] = system: MCF-7 (human breast carcinoma); assay: Seven-day in vitro cytotoxicity, MCF-7; type: cell-based; conditions: MCF7, 168 h
Procedure: as §1, §2, §3, §4

[4] = Table 17, seven day cytotoxicity, same run, read-out: A-549 ED50
[5] = Table 17, seven day cytotoxicity, same run, read-out: MCF-7 ED50
[6] = read-out: MCF-7 ED50, Table 17, seven day cytotoxicity, same run
[7] = read-out: MCF-7 LC50, Table 12, same run

CCCCC(O)CCCCCC(O)C1CCC(C2CCC(C(O)CCCCCCCCCCCCC3=CC(C)OC3=O)O2)O1 (centres unmarked) [Compound 2]
LC50 ([1]; Table 5, brine shrimp larvae): 6 ng/mL (≈ 9.63 nM) | mitochondrial inhibition (rat liver mitochondria; rat liver mitochondria, result in words, listed as bullanin (2)): high activity; also recorded: slightly higher potencies than bullatacin

CCCCCCCCCCC(O)C1CCC(C2CCC(C(O)CCCCC(O)CCCCCCCC3=CC(C)OC3=O)O2)O1 (centres unmarked) [Compound 3, Asimin]
BST LC50 ([1]; Table 5, brine shrimp larvae): 4.6 ng/mL

CCCCCCC(O)CCCC(O)C1CCC(C2CCC(C(O)CCCCCCCCCCCCC3=CC(C)OC3=O)O2)O1 (centres unmarked) [Compound 4, Asiminacin]
LC50 ([1]; Table 5, brine shrimp larvae): 5.7 ng/mL (≈ 9.15 nM)

CCCCCC(O)CCCCC(O)C1CCC(C2CCC(C(O)CCCCCCCCCCCCC3=CC(C)OC3=O)O2)O1 (centres unmarked) [Compound 5, Asiminecin]
LC50 ([1]; Table 5, brine shrimp larvae): 4.9 ng/mL (≈ 7.87 nM) | IC50 ([2]; read-out: A-549 LC50): 0.000329 ng/mL (≈ 0.000528 nM)

CCCCCCCCCCCCCC[C@@H](O)[C@H]1CC[C@H]([C@H](O)CC[C@H](O)CCCCC[C@@H](O)CC2=C[C@H](C)OC2=O)O1 [Compound 8, Goniothalamicin, reference compound]
LC50 ([1]; Table 17, same run): 37000 ng/mL (≈ 62000 nM) | IC50 [2, 4]: 0.00711 ng/mL (≈ 0.0119 nM) | IC50 [3, 5]: 0.00573 ng/mL (≈ 0.0096 nM) | RMB IC50 (rat liver mitochondria): 554.8 n moles/Lt/mg protein

CCCCCCCCCCCCCC[C@@H](O)[C@H](O)CC[C@H](O)[C@@H]1CC[C@@H](CCCCC[C@@H](O)CC2=C[C@H](C)OC2=O)O1 [Compound 10, Gigantetrocin A, reference compound]
LC50 ([1]; Table 17, same run): 600 ng/mL (≈ 1010 nM) | IC50 [2, 4]: 4.52e-05 ng/mL (≈ 7.57e-05 nM) | IC50 [3, 5]: 0.355 ng/mL (≈ 0.595 nM) | RMB IC50 (rat liver mitochondria): 287.1 n moles/Lt/mg protein

CCCCCCCCCCCCCC[C@@H](O)[C@H]1CC[C@@H]([C@@H]2CC[C@@H](CCCCC[C@@H](O)CC3=C[C@H](C)OC3=O)O2)OCO1 [Compound 11, 14,17-formaldehyde acetal derivative]
IC50 ([2]; read-out: A-549 ED50): 0.798 ng/mL (≈ 1.31 nM) | IC50 [3, 6]: 461 ng/mL (≈ 757 nM)

CCCCCC[C@H](O)CCC[C@H](O)[C@H]1CC[C@H]([C@H](O)CC[C@H](O)[C@@H]2CC[C@@H](CCCCCCCCCC3=C[C@H](C)OC3=O)O2)O1 [Compound 13, Squamostatin A, reference compound]
LC50 ([1]; Table 17, same run): 2800 ng/mL (≈ 4380 nM) | IC50 ([2]; read-out: A-549 ED50): 0.268 ng/mL (≈ 0.419 nM) | IC50 [3, 6]: 0.072 ng/mL (≈ 0.113 nM)

CCCCCC[C@H](O)CCC[C@H](O)[C@H]1CC[C@H]([C@H]2CC[C@@H]([C@@H]3CC[C@@H](CCCCCCCCCC4=C[C@H](C)OC4=O)O3)OCO2)O1 [Compound 15, 16,19-mono-formaldehyde acetal derivative]
LC50 ([1]; Table 17, same run): 7 ng/mL (≈ 10.8 nM) | IC50 [3, 5]: 1090 ng/mL (≈ 1670 nM)

CCCCCC[C@H](O)CCC[C@H](O)[C@H]1CC[C@H]([C@H]2CC[C@H]([C@H](O)CCCCCCCCCCCCC3=C[C@H](C)OC3=O)O2)O1 [Compound 16, Squamocin, reference compound]
LC50 ([1]; Table 17, same run): 20 ng/mL (≈ 32.1 nM) | IC50 [3, 6]: 30.3 ng/mL (≈ 48.6 nM) | RMB IC50 (rat liver mitochondria): 21.5 n moles/Lt/mg protein

CCCCCC[C@H]1CCC[C@@H](C2CCC(C3CCC(C(O)CCCCCCCCCCCCC4=CC(C)OC4=O)O3)O2)OCO1 (some centres unmarked) [Compound 17, 24,28-formaldehyde acetal derivative of squamocin]
LC50 ([1]; Table 17, same run): 4.4 ng/mL (≈ 6.93 nM) | IC50 [3, 5]: 695 ng/mL (≈ 1090 nM) | RMB IC50 (rat liver mitochondria): 421.1 n moles/Lt/mg protein

CCCCCCCCCC[C@H](O)[C@H]1CC[C@H]([C@H]2CC[C@@H]([C@@H]3CC[C@@H](CCCCCCC[C@@H](O)CC4=C[C@H](C)OC4=O)O3)OCO2)O1 [Compound 19, 16,19-Formaldehyde acetal derivative of bullatalicin]
LC50 ([1]; Table 17, same run): 49 ng/mL (≈ 75.3 nM) | IC50 [3, 5]: 18.5 ng/mL (≈ 28.4 nM) | RMB IC50 (rat liver mitochondria): 29.8 n moles/Lt/mg protein

CCCCCCCCCC[C@@H](O)[C@H]1CC[C@H]([C@H](O)CC[C@H](O)[C@@H]2CC[C@@H](CCCCCCC[C@@H](O)CC3=C[C@H](C)OC3=O)O2)O1 [Compound 20, Bullatanocin, reference compound]
LC50 ([1]; Table 17, same run): 430 ng/mL (≈ 673 nM) | IC50 [3, 5]: 24.2 ng/mL (≈ 37.9 nM) | RMB IC50 (rat liver mitochondria): 50.7 n moles/Lt/mg protein

CCCCCCCCCC[C@@H](O)[C@H]1CC[C@H]([C@H]2CC[C@@H]([C@@H]3CC[C@@H](CCCCCCC[C@@H](O)CC4=C[C@H](C)OC4=O)O3)OCO2)O1 [Compound 21, 16,19-Formaldehyde acetal derivative of bullatanocin]
LC50 ([1]; Table 17, same run): 6.5 ng/mL (≈ 9.99 nM) | IC50 [3, 5]: 222 ng/mL (≈ 341 nM) | RMB IC50 (rat liver mitochondria): 11.3 n moles/Lt/mg protein

CCCCCCCCCCCCC(O)C1CCC(C(O)CCC(O)C2CCC(CCCCCC(O)CC3=CC(C)OC3=O)O2)O1 (stereo not drawn) [Compound 22, C-18/21-cis-gigantecin]
LC50 ([1]; Table 12): 249 ng/mL (≈ 390 nM)

CCCCCCCCCC[C@H](O)[C@H]1CC[C@H]([C@H]2CC[C@@H]([C@@H]3CC[C@@H](CCCCCCC[C@@H]4CC(CC(C)=O)C(=O)O4)O3)OCO2)O1 (stereo partly drawn) [Compound 27, 16,19-Formaldehyde acetal derivatives of (2,4-cis and trans)-bullatalicinones]
LC50 ([1]; Table 17, same run): 38 ng/mL (≈ 58.4 nM) | IC50 [3, 5]: 63.9 ng/mL (≈ 98.2 nM) | RMB IC50 (rat liver mitochondria): 20.5 n moles/Lt/mg protein

CCCCCCCCCCCC/C=C\CCC(O)C(O)CCC(O)C1CCC(CCCCCC(O)CC2=CC(C)OC2=O)O1 (centres unmarked) [Compound 28, Gigantetronenin, reference compound]
LC50 ([1]; Table 12): 10400 ng/mL (≈ 16700 nM) | IC50 [3, 7]: 1.49e-05 ng/mL (≈ 2.39e-05 nM)

CCCCCCCCCCCC[C@@H](O)[C@H]1CC[C@H]([C@H](O)CC[C@H](O)[C@@H]2CC[C@@H](CCCCC[C@@H](O)CC3=C[C@H](C)OC3=O)O2)O1 [Compound 29, Gigantecin]
LC50 ([1]; Table 12): 34.4 ng/mL (≈ 53.8 nM) | IC50 ([2]; read-out: A-549 LC50): < 10 ng/mL | IC50 [3, 7]: 0.1 ng/mL (≈ 0.157 nM)

C=C(C)[C@H]1Cc2c(ccc3c2O[C@@H]2COc4cc(OC)c(OC)cc4[C@@H]2C3=O)O1 [Rotenone, rotenone, reference compound]
LC50 [1]: 12.3 ng/mL (≈ 31.2 nM) | RMB IC50 (rat liver mitochondria): 34.8 n moles/Lt/mg protein
